Assay results taken from ChEMBL document CHEMBL6078643, “Palladium-Mediated Bioorthogonal System for Prodrug Activation of N-Benzylbenzamide-Containing Tubulin Polymerization Inhibitors for the Treatment of Solid Tumors” (J Med Chem, 2024).
The source made the active and inactive calls. The rule behind the calls is not given here.

Legend:
Tubulin (Homo sapiens) [1] = biological target: T1, Tubulin (Homo sapiens) (UniProt P68371+Q9H4B7+P0DPH7+P68366+Q13509+Q71U36+P04350+Q3ZCM7+P07437+P68363+Q9BQE3+Q6PEY2+Q13885+Q9BVA1+Q9BUF5); assay: Disruption of microtubule organization in human K562 cells assessed as appearance of slim microtubules at 80 nM incubated for 72 hrs by DAPI staining based confocal microscopic analysis; format: cell-based
HepG2 [2] = assay: Antitumor activity against human HepG2 cells xenografted in Balb/c mouse assessed as cell necrosis at 20 mg/kg, iv administered daily for 14 days in presence of palladium resins by TUNEL staining based analysis; format: functional, organism-based; details: time 14.0 day
K562 [3] = assay: Induction of cell cycle arrest in human K562 cells assessed as accumulation of cells at G2/M phase at 80 nM incubated for 72 hrs by PI staining based flow cytometric analysis ( Rvb = 8.5 %); format: functional
K562 [4] = assay: Induction of apoptosis in human K562 cells assessed as early apoptotic cells at 80 nM incubated for 72 hrs by Annexin V-APC staining based flow cytometric analysis (reference value: 2.78%); format: functional
Tubulin (Homo sapiens) [5] = biological target: T1, Tubulin (Homo sapiens); assay: In vivo inhibition of tubulin polymerization in human HepG2 cells xenografted in Balb/c mouse assessed as decrease in alpha tubulin expression at 20 mg/kg, iv administered daily for 14 days in presence of palladium resins incubated for 24 hrs by Western blot analysis; format: functional, organism-based; details: time 14.0 day
K562 [6] = assay: Induction of apoptosis in human K562 cells assessed as necrotic cells at 80 nM incubated for 72 hrs in presence of palladium resins by Annexin V-APC staining based flow cytometric analysis (reference value: 1.65%); format: functional
K562 [7] = assay: Induction of cell cycle arrest in human K562 cells assessed as accumulation of cells at G2/M phase at 80 nM incubated for 72 hrs in presence of palladium resins by PI staining based flow cytometric analysis ( Rvb = 8.5 %); format: functional
K562 [8] = assay: Induction of cell cycle arrest in human K562 cells assessed as accumulation of cells at S phase at 80 nM incubated for 72 hrs by PI staining based flow cytometric analysis ( Rvb = 14.04 %); format: functional
K562 [9] = assay: Induction of apoptosis in human K562 cells assessed as late apoptotic cells at 80 nM incubated for 72 hrs in presence of palladium resins by Annexin V-APC staining based flow cytometric analysis (reference value: 1.36%); format: functional
H22 = assay: Antiproliferative activity against mouse H22 cells assessed as reduction in cell viability incubated for 72 hrs by CCK-8 assay; format: functional, cell-based; details: H22, 72 h
Tubulin (Homo sapiens) [10] = biological target: T1, Tubulin (Homo sapiens); assay: Inhibition of tubulin polymerization in human HepG2 cells assessed as decrease in beta tubulin expression at 80 nM incubated for 24 hrs in presence of palladium resins by Western blotting analysis; format: cell-based
Tubulin (Homo sapiens) [11] = biological target: T1, Tubulin (Homo sapiens); assay: Inhibition of tubulin polymerization in human HepG2 cells assessed as decrease in polymerized alpha tubulin level at 80 nM incubated for 24 hrs in presence of palladium resins by Western blotting analysis; format: cell-based
[12] = Toxicity in Balb/c mouse xenografted with human HepG2 cells assessed as change in body weight at 20 mg/kg, iv administered daily in presence of palladium resins for 14 days and measured every 2 days; format: organism-based; details: in vivo, 336 h, time 14 day
K562 [13] = assay: Induction of cell cycle arrest in human K562 cells assessed as accumulation of cells at G2 phase at 80 nM incubated for 72 hrs by PI staining based flow cytometric analysis ( Rvb = 8.5 %); format: functional
[14] = Toxicity in Balb/c mouse xenografted with human HepG2 cells assessed as effect on lung at 20 mg/kg, iv administered daily in presence of palladium resins for 14 days by H and E staining based analysis; format: organism-based; details: in vivo, 336 h, time 14 day
Mitochondrial membrane [15] = assay: Induction of mitochondrial membrane potential loss in human K562 cells assessed as increase in green fluorescence intensity at 80 nM incubated for 72 hrs in presence of palladium resins by JC-1 staining based flow cytometric analysis (reference value: 6.74%); format: cell membranes
K562 [16] = assay: Select factor, ratio of test compound IC50 to 5-fluoro-N-(3-hydroxy-4-methoxybenzyl)-2-morpholinobenzamide IC50 for antiproliferative activity against human K562 cells assessed as reduction in cell viability incubated for 72 hrs by CCK-8 assay; format: functional
K562 [17] = assay: Induction of cell cycle arrest in human K562 cells assessed as accumulation of cells at G1 phase at 80 nM incubated for 72 hrs in presence of palladium resins by PI staining based flow cytometric analysis ( Rvb = 77.46 %); format: functional
[18] = Toxicity in Balb/c mouse xenografted with human HepG2 cells assessed as effect on liver at 20 mg/kg, iv administered daily in presence of palladium resins for 14 days by H and E staining based analysis; format: organism-based; details: in vivo, 336 h, time 14 day
Tubulin (Homo sapiens) [19] = biological target: T1, Tubulin (Homo sapiens); assay: Inhibition of tubulin polymerization in human K562 cells assessed as decrease in polymerized alpha tubulin level at 80 nM incubated for 24 hrs in presence of palladium resins by Western blotting analysis; format: cell-based
K562 [20] = assay: Induction of apoptosis in human K562 cells assessed as early apoptotic cells at 80 nM incubated for 72 hrs in presence of palladium resins by Annexin V-APC staining based flow cytometric analysis (reference value: 2.78%); format: functional
K562 [21] = assay: Induction of cell cycle arrest in human K562 cells assessed as accumulation of cells at G1 phase at 80 nM incubated for 72 hrs by PI staining based flow cytometric analysis ( Rvb = 77.46 %); format: functional
HepG2 [22] = assay: Antitumor activity against human HepG2 cells xenografted in Balb/c mouse assessed as cell necrosis at 20 mg/kg, iv administered daily for 14 days in presence of palladium resins by H and E staining based analysis; format: functional, organism-based; details: time 14.0 day
[23] = Prodrug release in PBS buffer assessed as half release time of 5-fluoro-N-(3-hydroxy-4-methoxybenzyl)-2-morpholinobenzamide in presence of palladium resins at 75 uM by HPLC analysis; format: ADME
HepG2 [24] = assay: Select factor, ratio of test compound IC50 to 5-fluoro-N-(3-hydroxy-4-methoxybenzyl)-2-morpholinobenzamide IC50 for antiproliferative activity against human HepG2 cells assessed as reduction in cell viability incubated for 72 hrs by CCK-8 assay; format: functional
Mitochondrial membrane [25] = assay: Induction of mitochondrial membrane potential loss in human K562 cells assessed as green fluorescence intensity incubated for 72 hrs by JC-1 staining based flow cytometric analysis (reference value: 6.74%); format: cell membranes
Tubulin (Homo sapiens) [26] = biological target: T1, Tubulin (Homo sapiens); assay: Inhibition of tubulin polymerization in human K562 cells assessed as decrease in beta tubulin expression at 80 nM incubated for 24 hrs in presence of palladium resins by Western blotting analysis; format: cell-based
Tubulin (Homo sapiens) [27] = biological target: T1, Tubulin (Homo sapiens); assay: Inhibition of tubulin polymerization in human HepG2 cells assessed as decrease in alpha tubulin expression at 80 nM incubated for 24 hrs in presence of palladium resins by Western blotting analysis; format: cell-based
K562 [28] = assay: Induction of apoptosis in human K562 cells assessed as chromatin condensation at 80 nM incubated for 72 hrs in presence of palladium resins by Hoechst 33342 staining based fluorescent microscopic analysis; format: functional, cell-based
HUVEC = assay: Antivascular activity against HUVEC cells assessed as inhibition of capillary tube formation at 80 nM incubated for 6 hrs in presence of palladium resins by inverted microscopic analysis; format: functional, cell-based; details: Homo sapiens

With C#CCOc1cc(CNC(=O)c2cc(F)ccc2N2CCOCC2)ccc1OC the Activity (Tubulin (Homo sapiens) [1]) was “Active”, the Activity (HepG2 [2]) was “Active” and the Activity (K562 [3]) was 8.97%. The Activity (K562 [4]) was 4.26%, the Activity (Tubulin (Homo sapiens) [5]) was “Active” and the Activity (K562 [6]) was 2.95%. For the same compound, the Activity (K562 [7]) was 12.3%, the Activity (K562 [8]) was 23.64% and the Activity (K562 [9]) was 27.82%. For the same compound, the IC50 (H22) was 805 nM, the inhibition (Tubulin (Homo sapiens) [10]) was “Active” and the inhibition (Tubulin (Homo sapiens) [11]) was “Active”. The Activity [12] was “Non-toxic”, the Activity (K562 [13]) was 8.97% and the Activity [14] was “Non-toxic”. The Activity (Mitochondrial membrane [15]) was 54.2%, the “Ratio IC50” value (K562 [16]) was 69.1 and the Activity (K562 [17]) was 58.6%. For the same compound, the Activity [18] was “Non-toxic”, the inhibition (Tubulin (Homo sapiens) [19]) was “Active” and the Activity (K562 [20]) was 23.78%. The Activity (K562 [21]) was 67.39%, the Activity (HepG2 [22]) was “Active” and the t1/2 [23] was 7.2 h. For the same compound, the “Ratio IC50” value (HepG2 [24]) was 68.3, the Activity (Mitochondrial membrane [25]) was 8.08% and the inhibition (Tubulin (Homo sapiens) [26]) was “Active”. For the same compound, the inhibition (Tubulin (Homo sapiens) [27]) was “Active”, the Activity (K562 [28]) was “Active” and the Activity (HUVEC) was “Active”.
